The subject of this test is cutaneous local thermal hyperemia response. Description: Cutaneous local thermal hyperemia test by laser Doppler flowmetry before and after chemical intervention (oral β-blocker). In kind it is in vivo, human. The note with it: subject with panic disorder, 30 minutes after oral propranolol 10 mg. As for the experimental part:
The participants were supine during the entire test period. Cutaneous blood flow was measured by LDF (Moor DRT4, Moor Instruments Ltd, Axminster, Devon, UK). For each measurement, blood pressure was recorded continuously with a non-invasive blood pressure monitor (CareTaker, Empirical Technologies Corporation, Charlottesville, Va., USA) on the middle finger of the dominant hand throughout the procedures.
Blood flow was recorded simultaneously on the upper one-fourth of the bilateral forearm using LDF (DP12-V2 probe, 2 channels, length: 12 mm, diameter 1.5 mm; Moor Instruments Ltd.), and two recording sites were located at the radial half of the flexor and extensor aspects of the forearm, which were located according to a predefined rule. The probe was mounted to a probe holder to hold the probe in position. The extensor and flexor recording sites were located along the line between the extensor and flexor aspects of the lateral epicondyle of the humerus, respectively, and the lateral side of the styloid process of radius. The same sites were measured bilaterally with the flexor and extensor aspects in a random sequence. The recording sites were kept thermally neutral at 33° C. by a heater (SH02-SHP2 probe, Moor Instruments Ltd.) for 5 minutes for the baseline measurement, and then the temperature was increased to 42° C. by 1° C./10 seconds and maintained at 42° C. for up to 5 minutes. After completing the measurements, the holders were maintained in situ, and all of the procedures were repeated with the same recording sequence 45 minutes after the first measurement. The holders were then removed without marking after the first day of the experiment. The same procedures were conducted at the same time 1 to 3 days later, and the recording sites were relocated according to the same predefined rule.
Cutaneous red blood cell flux (RBCF), expressed as arbitrary perfusion units (PUs), was used to indicate local cutaneous blood flow, and CVC (PU/mmHg), which derived from RBCF divided by mean arterial pressure to adjust for the influence of blood pressure, was the indicator of blood flow change.
Baseline CVC, peak CVC, absolute change of peak CVC, percent change of peak CVC, 4 minutes area-under-the-curve (AUC), and time to peak flux were used as indicators of the hyperemic response during heating. The absolute change of peak CVC was defined as the peak CVC minus baseline CVC, and the percentage of peak CVC change equals to the absolute change of peak CVC divided by baseline CVC multiplied by 100%. The 4 minutes AUC was the accumulation of blood flux during the first 4 minutes of the heating period. The time to peak flux was the period from the heating started and up to peak flux.
Upon arrival in the laboratory, the subjects were arranged on chairs in a temperature- and humidity-controlled laboratory (40-60% humidity, 25±1° C.) for acclimation of 30 minutes. After the acclimation period, the thermal hyperemia test was performed at specified sampling sites. The participants were supine during the entire test period. Cutaneous blood flow was measured by LDF (Moor DRT4, Moor Instruments Ltd, Axminster, Devon, UK). For each measurement, blood pressure was recorded continuously with a non-invasive blood pressure monitor (CareTaker, Empirical Technologies Corporation, Charlottesville, Va., USA) on the middle finger of the dominant hand throughout the procedures. The sampling and data processing procedures taught in Example 1, above, also applied in the present example.
Subject (45 kg) suffering from panic disorder was sampled at the infraclavicular, parasternal and axilla sites (points (i), (j) and (l) in FIG. 2) on both the right and left sides before and after the administration of β-blocker. Specifically, the post-β-blocker sampling procedure was performed at 30 minutes after the oral administration of β-blocker, propranolol, (10 mg).

SMILES strings stand for the structures.

Turning to `CC(C)NCC(O)COc1cccc2ccccc12` (stereo not drawn) [propranolol], the “CVCI, max, After” value came out at 1.09 PU/mmHg (Axilla, left); 1.91 PU/mmHg (Axilla, right); 1.03 PU/mmHg (Infraclavicular, left); 1.95 PU/mmHg (Infraclavicular, right); 1.45 PU/mmHg (Parasternal, left); 2.53 PU/mmHg (Parasternal, right). In addition, the “Initial AUC, After” value stood at 17019 PU (Axilla, left); 31740 PU (Axilla, right); 17298 PU (Infraclavicular, left); 33797 PU (Infraclavicular, right); 26800 PU (Parasternal, left); 47602 PU (Parasternal, right). Further, the “ΔCVC, After” value (Axilla, left) amounted to 0.92 PU/mmHg; the “ΔCVC, After” value (Axilla, right) stood at 1.63 PU/mmHg; the “ΔCVC, After” value (Infraclavicular, left) amounted to 0.88 PU/mmHg; the “ΔCVC, After” value (Infraclavicular, right) was determined as 1.76 PU/mmHg; the “ΔCVC, After” value (Parasternal, left) worked out at 1.28 PU/mmHg; the “ΔCVC, After” value (Parasternal, right) is listed as 2.36 PU/mmHg.
